{"source": "patent US20250345299A1", "about": "“COMBINATION AND COMPOSITION COMPRISING NICOTINIC ACID OR DERIVATIVE THEREOF AND FATTY ACID OR DERIVATIVE THEREOF” (T OMEGA AS, priority 2022, published 2025)", "format_in_all_cases": "in vivo, male Wistar rats, Rattus norvegicus", "key": {"[1]": {"test": "Analysis of plasma compounds in rats fed high-fat diet supplemented with TTA, NR, NAR or combinations", "parameters": "Quinolinic acid / Nicotinamide / N1-Methylnicotinamide / Pyridoxal 5′-phosphate / Pyridoxal / Thiamine monophosphate: unit not given here", "details": "high-fat diet + supplement, 12 weeks", "procedure": "This example illustrates an animal study using male Wistar rats which were fed NR, NAR, TTA and combinations thereof.\n(§1) The animal study was conducted according to the Guidelines for the Care and Use of Experimental Animals, and in accordance with the Norwegian legislation and regulations governing experiments using live animals. All efforts were made to optimize the animal environment and minimize suffering. Eight weeks-old old male Wistar rats, Rattus norvegicus, weighing 400-450 g, were purchased from Taconic (Ejby, Denmark). Upon arrival the rats were randomized using Research Randomizer, labeled and placed in open cages, two in each cage, where they were allowed to acclimatize to their surroundings for one week. During the acclimatization and experiment period, the rats had unrestricted access to tap water, but restricted access to chow to obtain a constant dose through the experiment.\n(§2) The rats were kept in a 12 hours light/dark cycle at a constant temperature (22±2° C.) and a relative humidity of 55% (±5%). Upon start of the experiment, the rats were block randomized to their respective interventions. All rats were divided into seven groups. The first group of animals (control group) was fed a high-fat diet (HF) with 25% by weight fat, consisting of 23% by weight lard and 2% by weight soybean oil, referred to as “HF”. The second group was fed a high-fat diet (HF) supplemented with tetradecylthioacetic acid (TTA) (250 mg/day/kg body weight), referred to as “HF+TTA”. The third group was fed a high-fat diet (HF) supplemented with nicotineamide riboside (NR) (100 mg/day/kg body weight), referred to as “HF+NR”. The fourth group was fed a high-fat diet (HF) supplemented with nicotinic acid riboside (NAR) (40 mg/day/kg body weight), referred to as “HF+NAR”. The fifth group was fed a high-fat diet (HF) supplemented with both tetradecylthioacetic acid (TTA) (250 mg/day/kg body weight) and nicotineamide riboside (NR) (100 mg/day/kg body weight), referred to as “HF+TTA+NR”. The sixth group was fed a high-fed diet (HF) supplemented with both tetradecylthioacetic acid (TTA) (250 mg/day/kg body weight) and nicotinic acid riboside (NAR) (40 mg/day/kg body weight), referred to as “HF+TTA+NAR”. The seventh group was fed a low-fed diet, referred to as “LF”.\n(§3) All animals were weighed daily and feed intake was determined weekly. The animal experiment was run for 12 weeks. At sacrifice, rats were anaesthetized by inhalation of 2-5% isoflurane (Schering-Plough, Kent, UK), the abdomen opened along the midline, and exsanguination was performed using cardiac puncture. EDTA-blood was collected and immediately chilled on ice. The samples were centrifuged and plasma was stored at −80° C. prior to analysis. Different tissues were collected, weighed and were immediately snap-frozen in liquid nitrogen and stored at −80° C. until further analysis."}, "[2]": {"test": "Body and adipose tissue weights in rats fed supplemented high-fat diet", "procedure": "as §1, with “Eight weeks-old old male Wistar rats, Rattus norvegicus, weighing 400-450 g, were purchased from Taconic (Ejby, Denmark).” left out\nas §2, §3"}, "[3]": {"test": "Liver lipids in rats fed supplemented high-fat diet", "details": "high-fat diet + supplement, 12 weeks", "procedure": "as §1, with “Eight weeks-old old male Wistar rats, Rattus norvegicus, weighing 400-450 g, were purchased from Taconic (Ejby, Denmark).” left out\nThe rats were kept in a 12 hours light/dark cycle at a constant temperature (22±2° C.) and a relative humidity of 55% (±5%). Upon start of the experiment, the rats were block randomized to their respective interventions. All rats were divided into seven groups. The first group of animals (control group) was fed a high-fat diet (HF) with 25% by weight fat, consisting of 23% by weight lard and 2% by weight soybean oil, referred to as “HF”. The second group was fed a high-fat diet (HF) supplemented with tetradecylthioacetic acid (TTA) (250 mg/day/kg body weight), referred to as “HF+TTA”. […]\nAll animals were weighed daily and feed intake was determined weekly. […]"}, "[4]": {"test": "Plasma lipids and total fatty acids in rats fed supplemented high-fat diet", "details": "high-fat diet + supplement, 12 weeks", "procedure": "as §1, with “Eight weeks-old old male Wistar rats, Rattus norvegicus, weighing 400-450 g, were purchased from Taconic (Ejby, Denmark).” left out\nas §2, §3"}, "[5]": {"details": "high-fat diet + supplement, 12 weeks"}}}
{"molecule": "O=C([O-])c1ccc[n+]([C@@H]2O[C@H](CO)[C@@H](O)[C@H]2O)c1", "note": "[HF + NAR, nicotinic acid riboside]", "values": [{"measurement": "2-Aminoadipic acid", "setting": "[1]", "result": 1.34, "unit": "µM"}, {"measurement": "3-Hydroxyanthranilic acid", "setting": "[1]", "result": 7.8, "unit": "µM"}, {"measurement": "Folic acid", "setting": "[1]", "result": 0.70, "unit": "µM"}, {"measurement": "Methylmalonic acid", "setting": "[1]", "result": 2.35, "unit": "µM"}, {"measurement": "N1-Methylnicotinamide", "setting": "[1]", "result": 2414}, {"measurement": "Nicotinamide", "setting": "[1]", "result": 4308}, {"measurement": "Nicotinic acid", "setting": "[1]", "result": 11.95, "unit": "µM"}, {"measurement": "Pyridoxal", "setting": "[1]", "result": 384.1}, {"measurement": "Pyridoxal 5′-phosphate", "setting": "[1]", "result": 598.3}, {"measurement": "Serine", "setting": "[1]", "result": 325, "unit": "µM"}, {"measurement": "Thiamine monophosphate", "setting": "[1]", "result": 350.0}, {"measurement": "Trigonelline", "setting": "[1]", "result": 0.084, "unit": "µM"}]}
{"molecule": "nicotineamide riboside [HF + NR]", "values": [{"measurement": "Brown adipose tissue weight", "setting": "[2]; [5]", "result": 0.308, "unit": "g"}, {"measurement": "White adipose tissue weight", "setting": "[2]; [5]", "result": 34.52, "unit": "g"}, {"measurement": "Body weight end", "setting": "[2]; high-fat diet + supplement, end of 12 weeks", "result": 555.60, "unit": "g"}, {"measurement": "Body weight start", "setting": "[2]; start of experiment (baseline)", "result": 409.60, "unit": "g"}, {"measurement": "Liver lipids: Cholesterol", "setting": "[3]", "result": 39.84, "unit": "µmol/g"}, {"measurement": "Liver lipids: Triglycerides", "setting": "[3]", "result": 75.22, "unit": "µmol/g"}, {"measurement": "2-Aminoadipic acid", "setting": "[1]", "result": 1.33, "unit": "µM"}, {"measurement": "3-Hydroxyanthranilic acid", "setting": "[1]", "result": 5.4, "unit": "µM"}, {"measurement": "3-Hydroxybutyrate", "setting": "[1]", "result": 287, "unit": "µM"}, {"measurement": "Acetoacetate", "setting": "[1]", "result": 72.9, "unit": "µM"}, {"measurement": "Glycine", "setting": "[1]", "result": 221, "unit": "µM"}, {"measurement": "Methylmalonic acid", "setting": "[1]", "result": 3.37, "unit": "µM"}, {"measurement": "N1-Methylnicotinamide", "setting": "[1]", "result": 3616}, {"measurement": "Nicotinamide", "setting": "[1]", "result": 5870}, {"measurement": "Nicotinic acid", "setting": "[1]", "result": 12.38, "unit": "µM"}, {"measurement": "Pyridoxal", "setting": "[1]", "result": 369.8}, {"measurement": "Pyridoxal 5′-phosphate", "setting": "[1]", "result": 729.0}, {"measurement": "Quinolinic acid", "setting": "[1]", "result": 533}, {"measurement": "HDL/LDL ratio", "setting": "[4]", "result": 2.117}, {"measurement": "Plasma lipids: Cholesterol", "setting": "[4]", "result": 2.000, "unit": "mmol/L"}, {"measurement": "Plasma lipids: High density lipoprotein", "setting": "[4]", "result": 0.938, "unit": "mmol/L"}, {"measurement": "Plasma lipids: Low density lipoprotein", "setting": "[4]", "result": 0.450, "unit": "mmol/L"}, {"measurement": "Plasma lipids: Triglycerides", "setting": "[4]", "result": 2.194, "unit": "mmol/L"}, {"measurement": "Total fatty acids, plasma", "setting": "[4]", "result": 3049, "unit": "µg/mL"}]}
